The source made the active and inactive calls.
How the values were obtained:
Pseudomonas = test: Antibacterial activity against Pseudomonas at 250 ug/ml after 24 to 45 hrs by disc diffusion method; type: functional; conditions: read-out: IZ
Achaea janata = test: Antifeedant activity against fourth instar larvae of Achaea janata fed on compound treated castor leaves at 200 ppm after 24 hrs by leaf disc method; type: functional, organism-based
Enterococcus faecalis = test: Antibacterial activity against Enterococcus faecalis at 250 ug/ml after 24 to 45 hrs by disc diffusion method; type: functional; conditions: for zone of inhibition at 250 µg/mL: read-out: IZ
Escherichia coli = test: Antibacterial activity against Escherichia coli at 250 ug/ml after 24 to 45 hrs by disc diffusion method; type: functional; conditions: read-out: IZ
Aspergillus niger = test: Antifungal activity against Aspergillus niger at 50 ug/ml after 72 hrs by disc diffusion method; type: functional, organism-based
Proteus vulgaris = test: Antibacterial activity against Proteus vulgaris at 250 ug/ml after 24 to 45 hrs by disc diffusion method; type: functional; conditions: read-out: IZ
Klebsiella pneumoniae = test: Antibacterial activity against Klebsiella pneumoniae at 250 ug/ml after 24 to 45 hrs by disc diffusion method; type: functional; conditions: read-out: IZ
Staphylococcus aureus = test: Antibacterial activity against Staphylococcus aureus at 250 ug/ml after 24 to 45 hrs by disc diffusion method; type: functional; conditions: read-out: IZ
Candida albicans = test: Antifungal activity against Candida albicans at 250 ug/ml after 72 hrs by disc diffusion method; type: functional; conditions: for zone of inhibition at 250 µg/mL: read-out: IZ
Penicillium = test: Antifungal activity against Penicillium at 50 ug/ml after 72 hrs by disc diffusion method; type: functional, organism-based

SMILES | zone of inhibition at 250 µg/mL (Pseudomonas) [mm] | Activity (Achaea janata) | zone of inhibition at 250 µg/mL (Enterococcus faecalis) [mm] | zone of inhibition at 250 µg/mL (Escherichia coli) [mm] | Activity (Aspergillus niger) | zone of inhibition at 250 µg/mL (Proteus vulgaris) [mm] | zone of inhibition at 250 µg/mL (Klebsiella pneumoniae) [mm] | zone of inhibition at 250 µg/mL (Staphylococcus aureus) [mm] | zone of inhibition at 250 µg/mL (Candida albicans) [mm] | Activity (Penicillium) | Activity (Enterococcus faecalis) | Activity (Candida albicans)
COc1ccc2c(c1Cl)CN1CN2Cc2c1ccc(OC)c2Cl | 20 | Active | 13 | 20 | inactive | 20 | 20 | 20 | 20 | Active | – | –
Cc1cc2c(cc1F)N1Cc3cc(C)c(F)cc3N(C2)C1 | 13 | Active | 8 | 13 | inactive | 13 | 13 | 13 | 13 | inactive | – | –
Fc1ccc2c(c1)CN1CN2Cc2cc(F)ccc21 | 8 | Active | – | 13 | inactive | 13 | 13 | 13 | 8 | inactive | inactive | –
Clc1ccc2c(c1)CN1CN2Cc2cc(Cl)ccc21 | 13 | Active | – | 13 | inactive | 13 | 13 | 13 | – | inactive | inactive | inactive
Fc1cccc2c1N1Cc3cccc(F)c3N(C2)C1 | 8 | Active | – | 13 | inactive | 8 | 8 | 8 | 8 | inactive | inactive | –
Clc1ccc2c(c1)N1Cc3ccc(Cl)cc3N(C2)C1 | 13 | Active | 13 | 13 | inactive | 13 | 13 | 13 | 8 | inactive | – | –
O=C(c1ccccc1)c1cc(Cl)cc2c1N1Cc3cc(Cl)cc(C(=O)c4ccccc4)c3N(C2)C1 | 13 | Active | – | 13 | Active | 13 | 13 | 13 | 20 | inactive | inactive | –
Cc1cc2c(cc1Cl)N1Cc3cc(C)c(Cl)cc3N(C2)C1 | 13 | Active | 13 | 8 | inactive | 8 | 13 | 8 | 13 | inactive | – | –
Cc1cc(Cl)c2c(c1)CN1CN2Cc2cc(C)cc(Cl)c21 | 8 | Active | – | 13 | inactive | 13 | 13 | 13 | – | inactive | inactive | inactive
Cc1ccc2c(c1Br)CN1CN2Cc2c1ccc(C)c2Br | 13 | Active | 8 | 13 | inactive | 13 | 13 | 13 | 8 | inactive | – | –
Clc1cccc2c1CN1CN2Cc2c(Cl)cccc21 | 8 | Active | 13 | 8 | inactive | 8 | 8 | 13 | 8 | inactive | – | –
Cc1ccc2c(c1I)CN1CN2Cc2c1ccc(C)c2I | 13 | Active | 13 | 8 | inactive | 8 | 13 | 8 | 13 | inactive | – | –
Cc1cc(Cl)cc2c1N1Cc3cc(Cl)cc(C)c3N(C2)C1 | 13 | Active | 13 | 8 | inactive | 8 | 13 | 8 | 8 | Active | – | –
Fc1ccc2c(c1)N1Cc3ccc(F)cc3N(C2)C1 | 8 | Active | – | 13 | inactive | 13 | 13 | 13 | 8 | inactive | inactive | –
Brc1ccc2c(c1)CN1CN2Cc2cc(Br)ccc21 | 13 | Active | 20 | 20 | Active | 13 | 20 | 20 | 20 | Active | – | –
Brc1cccc2c1CN1CN2Cc2c(Br)cccc21 | 13 | Active | 13 | 8 | inactive | 8 | 13 | 8 | 8 | inactive | – | –
Clc1cccc2c1N1Cc3cccc(Cl)c3N(C2)C1 | 8 | Active | 13 | 8 | inactive | 8 | 8 | 13 | 8 | inactive | – | –
Cc1cc(Br)cc2c1N1Cc3cc(Br)cc(C)c3N(C2)C1 | 13 | Active | 13 | 8 | inactive | 8 | 13 | 8 | 8 | inactive | – | –
Cc1cc(F)c2c(c1)CN1CN2Cc2cc(C)cc(F)c21 | 8 | Active | – | 13 | inactive | 13 | 13 | 13 | 8 | inactive | inactive | –
Brc1cccc2c1N1Cc3cccc(Br)c3N(C2)C1 | 8 | Active | – | 13 | inactive | 8 | 8 | 8 | – | inactive | inactive | inactive
Cc1cc2c(cc1I)N1Cc3cc(C)c(I)cc3N(C2)C1 | 8 | Active | – | 8 | inactive | 8 | 8 | 13 | 13 | inactive | inactive | –
Brc1ccc2c(c1)N1Cc3ccc(Br)cc3N(C2)C1 | 8 | Active | – | 8 | inactive | 8 | 8 | 13 | 8 | inactive | inactive | –
Nc1ccc2c(c1)CN1CN2Cc2cc(N)ccc21 | 13 | – | – | 13 | inactive | 13 | 13 | 13 | 13 | inactive | inactive | –
N#Cc1ccc2c(c1)CN1CN2Cc2cc(C#N)ccc21 | 13 | – | – | 13 | inactive | 13 | 13 | 13 | 13 | inactive | inactive | –

— ChEMBL document CHEMBL3046842, “Antimicrobial and insect antifeedant activities of some Trogers bases” (2012)
